{"source": "paper PMC11939470", "about": "“The Cyclic Antimicrobial Peptide C-LR18 Has Enhanced Antibacterial Activity, Improved Stability, and a Longer Half-Life Compared to the Original Peptide” (Antibiotics, 2025)", "system": "E. coli ATCC25922", "assay": "Stability in serum, read out by MIC assay", "format": "in vitro ADME", "method": "The MIC test was performed using the method recommended by the National Committee for Clinical Laboratory Standards (NCCLS) Standards and Guidelines, and the method was modified according to the characteristics of antimicrobial peptides. The bacteria were cultured at 37 °C for 16 h, and the microbial suspension was diluted to a final concentration of 5 × 10^5 CFU/mL. Then, 50 µL of bacterial solution was mixed with 50 µL of MHB containing different concentrations peptides (0.5–256 µM) in a 96-well plate. […] The assays were performed three times. Geometric mean MIC represents the average MIC of the peptide against all the tested strains.\nThe stability of LR18 and C-LR18 in protease, serum, and gastrointestinal conditions was determined using MIC assay, as described previously.\nTo detect the stability of peptides in serum, the peptides were mixed with various concentrations of fetal bovine serum and mouse serum solutions, and the final concentrations of serum were 6.25%, 12.5%, 25%, and 50%. The MIC of peptides against E. coli ATCC25922 in the presence of different concentrations of serum was determined. Subsequent steps were the same as for the MIC assay. The assays were performed three times.", "note": "Where a SMILES comes first, the peptide text is derived from it. Bridges are numbered along the chain shown (N, C = ends)."}
{"smiles": "CC(C)C[C@@H]1NC(=O)[C@H](CCCNC(=N)N)NC(=O)[C@H](CCCNC(=N)N)NC(=O)[C@H](CC(C)C)NC(=O)[C@H](CC(C)C)NC(=O)[C@H](CCCNC(=N)N)NC(=O)[C@H](CC(C)C)NC(=O)[C@@H]2CCCN2C(=O)[C@H](CCCNC(=N)N)NC(=O)[C@H](CCCNC(=N)N)NC(=O)[C@@H]2CCCN2C(=O)[C@H](CC(C)C)NC(=O)[C@H](CCCNC(=N)N)NC(=O)[C@H](CC(C)C)NC(=O)[C@H](CC(C)C)NC(=O)[C@H](CCCNC(=N)N)NC(=O)[C@H](CCCNC(=N)N)NC(=O)[C@H](CC(C)C)NC(=O)[C@@H](N)CSSC[C@@H](C(=O)O)NC1=O", "note": "[C-LR18] (H-CLRRLLRLPRRPLRLLRRLC-OH; disulfide 1-20; N-terminus and C-terminus assumed)", "values": [{"measurement": "increase of MIC", "setting": "50% serum or artificial gut solution for 30 min (abstract)", "value": 4, "unit": "fold"}, {"measurement": "increase of MIC", "setting": "serum concentration 50%", "value": 4, "unit": "times"}]}
